Here are results for ten molecules from PubChem BioAssay (NCI).

Some test systems named below: UACC-257 melanoma; NCI-H460 lung; MCF7 breast; OVCAR-8 ovarian; SNB-19 CNS; RPMI-8226 leukemia; HS 578T breast; SR leukemia; MDA-MB-435; SF-295 CNS; OVCAR-3 ovarian; OVCAR-5 ovarian; HOP-62 NSCLC; T-47D breast.
Assay in all cases: DTP human tumour cell line panel, 48 h

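The compound was tested at five concentrations on cells cultured in 96-well plates, with a 48-hour exposure period. Definition used: TGI = concentration required for complete inhibition of growth.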 Where only a bound is given, the exact number is not on record here.

Broadly, the TGI is the concentration giving total growth inhibition. A high value points to less potent growth arrest. Turning to `Cc1ccc(NC(=S)Nc2c(C)n(C)n(-c3ccccc3)c2=O)cc1`, the total growth inhibition concentration (TGI) in the assay with UACC-257 melanoma, in the assay on NCI-H460 lung, in the assay with MCF7 breast, in the assay with OVCAR-8 ovarian, with SNB-19 CNS and with RPMI-8226 leukemia was greater than 100 µM in each case. For the same molecule, the TGI in the assay on HS 578T breast, in the assay with SR leukemia, with MDA-MB-435, in the assay on SF-295 CNS, with OVCAR-3 ovarian and in the assay with OVCAR-5 ovarian was greater than 100 µM throughout. This molecule gave a TGI in the assay on HOP-62 NSCLC greater than 100 µM.
As for `CC(C)(C)OC(=O)NC(Cc1ccc(O)cn1)C(N)=O` (centres undefined), the TGI in the assay with UACC-257 melanoma, in the assay with NCI-H460 lung, with MCF7 breast, in the assay on OVCAR-8 ovarian, with SNB-19 CNS and with RPMI-8226 leukemia was greater than 100 µM each time. For the same molecule, the TGI in the assay with HS 578T breast, with SR leukemia, in the assay on MDA-MB-435, with SF-295 CNS, in the assay with OVCAR-3 ovarian and in the assay with OVCAR-5 ovarian was greater than 100 µM each time. The molecule also registered a TGI with HOP-62 NSCLC greater than 100 µM.
Regarding `C[C@H](CC[C@@H](O)C(C)(C)O)[C@H]1CC[C@@]2(C)[C@@H]3CC=C4[C@@H](CC[C@H](O)C4(C)C)[C@]3(C)C(=O)C[C@]12C`, the TGI was greater than 50 µM in the assay with UACC-257 melanoma; greater than 50 µM with NCI-H460 lung; greater than 50 µM with MCF7 breast; greater than 50 µM in the assay with OVCAR-8 ovarian; greater than 50 µM with SNB-19 CNS; 29.8 µM in the assay with RPMI-8226 leukemia. Moreover, the TGI in the assay on HS 578T breast, in the assay with SR leukemia, in the assay with MDA-MB-435, with SF-295 CNS, in the assay with OVCAR-3 ovarian and with OVCAR-5 ovarian was greater than 50 µM each time. In the assay on HOP-62 NSCLC, this molecule showed a TGI greater than 50 µM.
Regarding `COc1ccc(Oc2nc3ccc(C(F)(F)F)cc3nc2-c2ccccc2)cc1`, the concentration for total growth inhibition (TGI) in the assay on UACC-257 melanoma, with NCI-H460 lung, with MCF7 breast, with SNB-19 CNS, in the assay on RPMI-8226 leukemia and in the assay on HS 578T breast was greater than 100 µM in each case. In addition, the TGI with SR leukemia, in the assay with MDA-MB-435, in the assay on SF-295 CNS, in the assay on OVCAR-3 ovarian, with OVCAR-5 ovarian and with HOP-62 NSCLC was greater than 100 µM in each case.
Consider `Cn1c(-c2ccc[se]2)ccc1-c1ccc(CO)[se]1`, for which the TGI was 0.102 µM with UACC-257 melanoma; 18.8 µM in the assay with NCI-H460 lung; greater than 100 µM in the assay with MCF7 breast; greater than 100 µM in the assay on OVCAR-8 ovarian; greater than 100 µM in the assay on SNB-19 CNS; greater than 100 µM with RPMI-8226 leukemia. Besides, the TGI in the assay with HS 578T breast is greater than 100 µM; with SR leukemia it was 53.5 µM; in the assay on MDA-MB-435 it was greater than 67.7 µM; in the assay on SF-295 CNS it was greater than 100 µM.
`O=C1OC2(C(F)(F)F)Oc3ccccc3CN2C12CCCCC2` (centres undefined): the TGI was 71.4 µM in the assay with UACC-257 melanoma; 66.4 µM with NCI-H460 lung; greater than 100 µM with MCF7 breast; greater than 100 µM with OVCAR-8 ovarian; greater than 100 µM in the assay with SNB-19 CNS; 74.8 µM with SR leukemia. Further, the TGI in the assay with MDA-MB-435 was greater than 100 µM; with T-47D breast it was greater than 100 µM; in the assay with SF-295 CNS, 86.8 µM; in the assay on OVCAR-3 ovarian it was greater than 100 µM; in the assay with OVCAR-5 ovarian, greater than 100 µM; in the assay on HOP-62 NSCLC, 91.9 µM.
As to `O=c1[nH]c(=O)n(COCc2ccccc2)c2ccc(Br)cc12`, the TGI in the assay on UACC-257 melanoma, with NCI-H460 lung, in the assay on MCF7 breast, in the assay on OVCAR-8 ovarian, in the assay on SNB-19 CNS and with SR leukemia was greater than 100 µM in each case. For the same molecule, the TGI in the assay on MDA-MB-435, in the assay on SF-295 CNS, with OVCAR-3 ovarian and in the assay with OVCAR-5 ovarian was greater than 100 µM throughout.
As for `CC1CCc2c(sc3ncnc(N/N=C/c4ccc(Cl)c(Cl)c4)c23)C1` (centres undefined), the TGI was greater than 100 µM in the assay with UACC-257 melanoma; 42.2 µM in the assay on NCI-H460 lung; 58 µM with OVCAR-8 ovarian; 74.3 µM in the assay on SNB-19 CNS; greater than 100 µM in the assay with RPMI-8226 leukemia; 33 µM in the assay with SR leukemia. The TGI was 43.2 µM with SF-295 CNS, 57.4 µM with OVCAR-3 ovarian, greater than 100 µM in the assay on OVCAR-5 ovarian and greater than 100 µM with HOP-62 NSCLC.
For `O=c1[nH]c(=O)n(COCc2ccccc2)c2ccc([N+](=O)[O-])cc12`, the TGI in the assay with UACC-257 melanoma, in the assay with MCF7 breast, in the assay with OVCAR-8 ovarian, in the assay with SR leukemia, in the assay on MDA-MB-435 and with SF-295 CNS was greater than 100 µM throughout. For the same molecule, the TGI in the assay with OVCAR-3 ovarian and with OVCAR-5 ovarian was greater than 100 µM throughout.
`O=c1[nH]c2ccccc2nc1/C=C(\O)C(F)F`: the total growth inhibition concentration (TGI) in the assay with UACC-257 melanoma, in the assay on NCI-H460 lung, in the assay with MCF7 breast, in the assay with OVCAR-8 ovarian, in the assay with SNB-19 CNS and with RPMI-8226 leukemia was greater than 100 µM each time. The TGI with HS 578T breast, with SR leukemia, with MDA-MB-435, in the assay on SF-295 CNS, in the assay with OVCAR-3 ovarian and in the assay with OVCAR-5 ovarian was greater than 100 µM in each case. The molecule also returned a TGI with HOP-62 NSCLC greater than 100 µM.
